Laboratory results published in patent US9702865B2, “System and method for high-content oncology assay” (RIGEL PHARMACEUTICALS, INC., priority 2002, dated 2017).

Tests used:
Assay type in all cases: cell-based
A549 cells [1] = assay: cell proliferation assay (nuclei count, cell proliferation analysis module); settings: Homo sapiens; taxol-treated A549 cells, nuclei count vs concentration, FIG. 5
Description: The cell proliferation analysis module 58 provides information about the ability of cells to divide and proliferate. In general, the cell proliferation analysis module provides such information by counting the number of objects (typically nuclei) identified by the object identification module 57. In one embodiment, the cell proliferation analysis module […] can be used to screen for and/or identify candidate compounds having anti-proliferative activity. According to this embodiment, the proliferation of cells treated with or exposed to a candidate compound of interest can be monitored with the cell proliferation analysis module 58 of the invention. […] In a specific embodiment, samples of equal volume are collected from a cell culture as a function of time and analyzed for proliferation with the cell proliferation analysis module 58 of the invention. […]
In another specific embodiment, adherent cells may be treated with different concentrations of test compound, permitted to incubate for a specified period time and then analyzed with the cell proliferation analysis module 58. Plotting the average number of cells in each sample well as a function of compound concentration provides a curve from which the anti-proliferative IC50 (or EC50) can be determined. […]

A549 cells [2] = assay: in vitro; settings: FIG. 10
Description: (§1) FIG. 9A illustrates one embodiment of processing steps associated with the operation of the cell death analysis module 62. The first processing step of FIG. 9A is to obtain luminescence intensity (LI) values corresponding to defined nuclei of cells captured by the image capture device (block 130), as described above. Based upon these LI values, the minimum nuclear luminescence intensity values (“MNLI”) are obtained (block 132). The MNLI value for a nucleus is the lowest LI value measured for that nucleus, for example, the lowest gray value of the pixels within a specific defined nucleus. At this point, the cell death analysis module 62 may compare the MNLI values of particular cells to a range of predefined MNLI values indicative of viable cells (block 134). A value falling outside this range identifies the cell as being non-viable or dead, whereas a value falling within this range identifies the cell as being viable or alive. Alternatively, the cell death analysis module 62 may be carried out with populations of cells, as illustrated in FIG. 9B. In this instance, MNLI values for a plurality of defined nuclei are obtained (block 142) based upon their LI values (block 140) and the percentage of cells having MNLI values falling outside a specified range of MNLI values is calculated (block 144). This percentage is then compared with a predefined percentage range indicative of a viable cell population (block 146). Cell populations having percentages falling within the predefined range are reported as viable populations, whereas percentages falling outside the predefined range are reported as non-viable populations.
(§2) In one embodiment, the range of MNLI values indicative of viable cells may be calculated from control cell MNLI values using standard statistical analyses. For example, the MNLI values that bound a specified percentage or confidence interval, for example, 80%, 90%, 95% or a higher percentage, of the control cell MNLI values may be used as boundaries to defined the range of MNLI values indicative of viable cells. As this range is only exemplary, it will be appreciated that higher or lower percentages may be utilized. As a specified example, the MNLI values that bound 95% of the MNLI values using a standard statistical analysis yields good results. […] Once applied, the percentage of test cells falling within (or without) the range can be calculated to assess whether the cell population is viable or non-viable. […]
(§3) The coordinates of these DMSO-treated cells form a tight band of MNLI values. Based on a statistical analysis, 95% of the MNLI values measured from this population fall within a range of 481 to 560 intensity units (i.e., within a range of […] from the statistical mean MNLI value). […]

in vitro = settings: human
Description: as §1, §2, §3

| Compound | EC50 (A549 cells [1]) | induction of cell death (MNLI analysis and visual inspection of images) (A549 cells [2]) | viability (in vitro) |
| --- | --- | --- | --- |
| CC(=O)O[C@H]1C(=O)[C@@]2(C)[C@H]([C@H](OC(=O)c3ccccc3)[C@]3(O)C[C@H](OC(=O)[C@H](O)[C@@H](NC(=O)c4ccccc4)c4ccccc4)C(C)=C1C3(C)C)[C@]1(OC(C)=O)CO[C@@H]1C[C@@H]2O [taxol] | 2.2 nM | induce cell death | 83% |
| COc1cc([C@@H]2c3cc4c(cc3[C@@H](O[C@@H]3O[C@@H]5CO[C@@H](C)O[C@H]5[C@H](O)[C@H]3O)[C@H]3COC(=O)[C@H]23)OCO4)cc(OC)c1O [etoposide] |  | do not | 99.5% |
